{
  "source": "patent US20080267905A1",
  "about": "“Methods and Compositions Using Selective Cytokine Inhibitory Drugs for Treatment and Management of Cancers and Other Diseases” (CELGENE CORPORATION, priority 2004, published 2008)",
  "key": {"TNF-α production": {"test_system": "TNF-α production", "experiment": "Inhibition of TNF-α production following LPS-stimulation of human PBMC and human whole blood (in vitro cytokine studies)", "assay_type": "cell-based", "details": "compared with thalidomide", "from_the_text": "In a specific embodiment, the pharmacological properties of 3-(3,4-dimethoxy-phenyl)-3-(1-oxo-1,3-dihydro-isoindol-2-yl)-propionamide are characterized in in vitro studies. Studies examine the effects of the compound on the production of various cytokines. Inhibition of TNF-α production following LPS-stimulation of human PBMC and human whole blood by the compound is investigated in vitro. […] The pharmacological effects of 3-(3,4-dimethoxy-phenyl)-3-(1-oxo-1,3-dihydro-isoindol-2-yl)-propionamide may derive from its action as an inhibitor of the generation of inflammatory cytokines."}, "[1]": {"experiment": "Cardiovascular and respiratory function in anesthetized dogs", "assay_type": "in vivo", "details": "anesthetized Beagle dogs", "experimental": "The effects of 3-(3,4-dimethoxy-phenyl)-3-(1-oxo-1,3-dihydro-isoindol-2-yl)-propionamide on cardiovascular and respiratory function are investigated in anesthetized dogs. Two groups of Beagle dogs (2/sex/group) are used. One group receives three doses of vehicle only and the other receives three ascending doses of the compound (200, 400, and 800 mg/kg). In all cases, doses of the compound or vehicle are successively administered via infusion through the jugular vein separated by intervals of at least 30 minutes."}},
  "data": [
    {"smiles": "COc1ccc(C(CC(N)=O)N2Cc3ccccc3C2=O)cc1OC", "note": "(stereo not drawn) [3-(3,4-dimethoxy-phenyl)-3-(1-oxo-1,3-dihydro-isoindol-2-yl)-propionamide]", "values": [
      {"measurement": "pharmacological activity profile, potency relative to thalidomide", "setting": "TNF-α production", "result": "five to fifty times more potent than thalidomide"},
      {"measurement": "cardiovascular and respiratory changes", "setting": "[1]; all doses (200, 400, and 800 mg/kg), infusion through the jugular vein, compared to vehicle control group", "result": "minimal"},
      {"measurement": "deviations in femoral blood flow, respiratory parameters, and Qtc interval", "setting": "[1]; common to both the control and treated groups", "result": "not considered treatment-related"},
      {"measurement": "arterial blood pressure", "setting": "[1]; following administration of the low dose, only statistically significant difference vs vehicle", "result": "small increase"},
      {"measurement": "arterial blood pressure effect at higher doses", "setting": "[1]; higher doses", "result": "not seen at higher doses"},
      {"measurement": "duration of the arterial blood pressure effect", "setting": "[1]; low dose", "result": "approximately 15 minutes"}
    ]}
  ]
}
